# Source: patent US20100184674A1, “PROADRENOMEDULLIN ALONE OR IN COMBINATION WITH BIG GASTRIN I AS A THERAPEUTIC AGENT” (priority 2007, published 2010)
# Where no end group is shown, it is not given here. [ ]: non-standard residue; d: D form. pGlu = O=C1CC[C@@H](C(=O)O)N1
# Tested on: drug-resistant Mycobacterium tuberculosis
# Format: cell-based
# Conditions: 10 micrograms per ml; seven days; strain resistant against PAS, streptomycin and isoniazid
row,Substance,inhibition of the growth of Mycobacterium tuberculosis
1,Pyr-Leu-Gly-Pro-Gln-Gly-Pro-Pro-His-Leu-Val-Ala-Asp-Pro-Ser-Lys-Lys-Gln-Gly-Pro-Trp-Leu-Glu-Glu-Glu-Glu-Glu-Ala-Tyr-Gly-Trp-Met-Asp-Phe-NH2 ([pGlu]LGPQGPPHLVADPSKKQGPWLEEEEEAYGWMDF-NH2; SMILES CSCC[C@H](NC(=O)[C@H](Cc1c[nH]c2ccccc12)NC(=O)CNC(=O)[C@H](Cc1ccc(O)cc1)NC(=O)[C@H](C)NC(=O)[C@H](CCC(=O)O)NC(=O)[C@H](CCC(=O)O)NC(=O)[C@H](CCC(=O)O)NC(=O)[C@H](CCC(=O)O)NC(=O)[C@H](CCC(=O)O)NC(=O)[C@H](CC(C)C)NC(=O)[C@H](Cc1c[nH]c2ccccc12)NC(=O)[C@@H]1CCCN1C(=O)CNC(=O)[C@H](CCC(N)=O)NC(=O)[C@H](CCCCN)NC(=O)[C@H](CCCCN)NC(=O)[C@H](CO)NC(=O)[C@@H]1CCCN1C(=O)[C@H](CC(=O)O)NC(=O)[C@H](C)NC(=O)[C@@H](NC(=O)[C@H](CC(C)C)NC(=O)[C@H](Cc1c[nH]cn1)NC(=O)[C@@H]1CCCN1C(=O)[C@@H]1CCCN1C(=O)CNC(=O)[C@H](CCC(N)=O)NC(=O)[C@@H]1CCCN1C(=O)CNC(=O)[C@H](CC(C)C)NC(=O)[C@@H]1CCC(=O)N1)C(C)C)C(=O)N[C@@H](CC(=O)O)C(=O)N[C@@H](Cc1ccccc1)C(N)=O) [Peptide 2],100%
2,Ala-Arg-Leu-Asp-Val-Ala-Ser-Glu-Phe-Arg-Lys-Lys-Trp-Asn-Lys-Trp-Ala-Leu-Ser-Arg-NH2 (ARLDVASEFRKKWNKWALSR-NH2) [Peptide 1],100%
